From patent publication US6812243B2, “Indole derivatives and their use for the treatment of malignant and other diseases based on pathological proliferation” (Zentaris AG, priority 1998, dated 2004) come the findings set out here.

Each structure is given as a SMILES string. Where two headings read alike, the source gives them in different places.

Type in all cases: cell-based
The target of assay [1] is T1, EGF receptor tyrosine kinase (Homo sapiens, UniProt P00533).
T1 construct: tested in intact A431 cells; endogenous in cells; host or cells: A431 cells
T1 sequence (P00533 25-1210): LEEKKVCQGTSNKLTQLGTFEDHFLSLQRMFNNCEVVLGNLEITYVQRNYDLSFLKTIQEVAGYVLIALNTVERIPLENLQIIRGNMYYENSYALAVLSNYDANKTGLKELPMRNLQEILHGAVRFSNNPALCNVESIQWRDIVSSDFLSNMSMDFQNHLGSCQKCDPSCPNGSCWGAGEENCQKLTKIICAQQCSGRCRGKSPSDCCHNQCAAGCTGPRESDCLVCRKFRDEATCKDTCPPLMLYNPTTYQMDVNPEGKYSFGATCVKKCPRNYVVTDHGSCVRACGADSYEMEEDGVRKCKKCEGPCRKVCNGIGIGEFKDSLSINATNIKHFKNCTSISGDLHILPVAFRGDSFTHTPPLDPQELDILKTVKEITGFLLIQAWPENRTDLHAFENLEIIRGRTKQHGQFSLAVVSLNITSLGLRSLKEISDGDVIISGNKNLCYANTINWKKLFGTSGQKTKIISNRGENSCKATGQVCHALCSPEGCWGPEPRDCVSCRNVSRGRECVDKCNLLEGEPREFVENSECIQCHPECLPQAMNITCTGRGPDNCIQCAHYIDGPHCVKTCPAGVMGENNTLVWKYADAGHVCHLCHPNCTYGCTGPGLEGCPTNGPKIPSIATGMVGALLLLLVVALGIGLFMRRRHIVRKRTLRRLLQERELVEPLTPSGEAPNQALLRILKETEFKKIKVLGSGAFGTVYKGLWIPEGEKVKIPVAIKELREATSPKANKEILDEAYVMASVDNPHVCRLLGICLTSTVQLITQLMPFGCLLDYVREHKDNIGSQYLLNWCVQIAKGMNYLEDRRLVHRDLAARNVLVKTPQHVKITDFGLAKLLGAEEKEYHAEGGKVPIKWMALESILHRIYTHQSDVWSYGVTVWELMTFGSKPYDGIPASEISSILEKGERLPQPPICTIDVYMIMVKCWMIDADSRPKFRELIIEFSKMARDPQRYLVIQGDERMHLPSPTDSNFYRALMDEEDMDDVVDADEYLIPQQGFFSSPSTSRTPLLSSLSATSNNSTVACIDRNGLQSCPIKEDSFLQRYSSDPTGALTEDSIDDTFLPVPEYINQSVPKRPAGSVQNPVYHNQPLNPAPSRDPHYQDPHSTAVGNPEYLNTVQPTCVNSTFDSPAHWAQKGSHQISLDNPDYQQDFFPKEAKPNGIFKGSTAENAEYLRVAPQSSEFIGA
Kind of assay: EGFR phosphorylation in intact A 431 cells. The conditions noted are these: intact A431 cells; read-out: EGFR phosphorylation in vivo (A 431 cells), IC 50. Here is the method: The compounds according to the invention were furthermore investigated in vitro using isolated plasma membranes of Swiss 3T3 cells and using PDGF receptor purified from overexpressing cells, tested in intact A431 cells (and in some cases also in Swiss 3T3 plasma membranes) for possible inhibition of the EGF receptor tyrosine kinase and tested for inhibition of recombinant Src kinase.
30 μM. The compounds thus have specificity for the inhibition of the PDGF receptor tyrosine kinase in relation to other tyrosine kinases.

Assay [2] has as its system Swiss 3T3 cells. Kind of assay: DNA synthesis in growth factor stimulated Swiss 3T3 cells. The text has this: DNA synthesis tests in Swiss 3T3 cells which are stimulated with different growth factors are suitable for characterizing selective antiproliferative actions of receptor tyrosine kinase inhibitors. The compounds were investigated with respect to their action on the DNA sythesis stimulated in these cells by PDGF-BB, bFGF, FCS and the combination of EGF and insulin. These stimulants are approximately equipotent and increase the DNA synthesis in previously growth-arrested Swiss 3T3 cells to 5- to 20-fold.

The test system of assay [3] is sis-transformed NIH3T3 cells. The assay can be described thus: Colony formation of sis-3T3 cells in soft agar. The conditions noted are these: Mus musculus, read-out: Colony formation (sis-3T3 cells), IC 50. An excerpt:
Furthermore, the compounds were investigated for a possible antitransforming action using sis-transformed NIH3T3 cells. In these cells, a transformed phenotype characterized, inter alia, by irregular multilayered growth and colony formation in soft agar is maintained by expression of PDGF-BB and permanent activation of the endogenous PDGF receptors.

Regarding `O=C(c1cc2ccccc2[nH]1)c1cc2ccccc2[nH]1` [Example 19, Bisindol-2-ylmethan-1-one], the IC50 was above 10 µM in assay [1]; above 30 µM in assay [2] (Swiss-3T3, read-out: DNA synthesis (Swiss 3T3 cells), 10% FCS, IC 50); above 30 µM in assay [2] (Swiss-3T3, read-out: DNA synthesis (Swiss 3T3 cells), EGF/insulin-stimulated, IC 50); 3 to 10 µM in assay [2] (Swiss-3T3, read-out: DNA synthesis (Swiss 3T3 cells), FGF-stimulated, IC 50); 3 to 10 µM in assay [2] (Swiss-3T3, read-out: DNA synthesis (Swiss 3T3 cells), PDGF-stimulated, IC 50); 3 to 10 µM in assay [3].
